# Source: patent US20230365627A1, “MACROCYCLIC PEPTIDE BORONATE IMMUNOMODULATORS” (Bristol-Myers Squibb Company, priority 2020, published 2023)
# *1 amine or outer side, *2 acyl side, *3 side chain or, on linkers, in order; H or OH if unused. Where a SMILES comes first, the peptide text is derived from it. Bridges are numbered along the chain shown (N, C = ends). [ ]: non-standard residue; d: D form. X12 = O=C([C@H](CN1Cc2ccccc2B2O[C@@H]([C@H](O)[C@@H](C(O)CO)O2)[C@H](O)C1)N[*:1])[*:2]; X13 = O=C([C@H](CCNC[C@@H](O)[C@@H](O)[C@H](O)[C@H](O)C(O)CO)N[*:1])[*:2]; Trp(1-CH2CO) = O=C([C@H](Cc1cn(CC(=O)[*:3])c2ccccc12)N[*:1])[*:2]; X25 = O=C([C@H](CNCc1cc(F)c(B(O)O[*:3])c(F)c1)N[*:1])[*:2]; X29 = COc1ccc(B(O)O[*:3])c(CNC[C@H](N[*:1])C(=O)[*:2])c1; Trp(1-CH2COOH) = N[C@@H](Cc1cn(CC(=O)O)c2ccccc12)C(=O)O; X30 = O=C([C@H](CNCc1ccc(B(O)O)cc1C(F)(F)F)N[*:1])[*:2]; X5 = O=C([C@H](CNCc1ccc(Cl)c(B(O)O[*:3])c1)N[*:1])[*:2]; X19 = O=C([C@H](CNCc1cccc(B(O)O[*:3])c1F)N[*:1])[*:2]; X4 = O=C([C@H](CNCc1cc(Cl)ccc1B(O)O[*:3])N[*:1])[*:2]; X11 = COc1ccc(CNCC[C@H](N[*:1])C(=O)[*:2])cc1B(O)O; X10 = COc1ccc(CNC[C@H](N[*:1])C(=O)[*:2])cc1B(O)O; Hyp = O=C(O)[C@@H]1C[C@@H](O)CN1; NMeNle = CCCC[C@H](NC)C(=O)O; NMeA = CN[C@@H](C)C(=O)O; Dab = NCC[C@H](N)C(=O)O
# Target: PD-1/PD-L1 (Homo sapiens (Human), UniProt Q9NZQ7)
# Sequence (Q9NZQ7 18-239): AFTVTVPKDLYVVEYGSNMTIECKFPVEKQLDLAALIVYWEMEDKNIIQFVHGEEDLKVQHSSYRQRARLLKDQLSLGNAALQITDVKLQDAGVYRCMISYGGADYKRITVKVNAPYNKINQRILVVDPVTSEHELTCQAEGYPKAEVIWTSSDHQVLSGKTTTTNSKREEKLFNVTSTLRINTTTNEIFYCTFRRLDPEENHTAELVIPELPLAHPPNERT
# Assay: PD-1/PD-L1 Homogenous Time-Resolved Fluorescence (HTRF) binding assay
# Conditions: not given
# From the text: Methods for Testing the Ability of Macrocyclic Peptides to Compete for the Binding of PD-1 to PD-L1 Using Homogenous Time-Resolved Fluorescence (HTRF) Binding Assays
# The ability of the compounds of formula (I) to bind to PD-L1 was investigated using a PD-1/PD-L1 Homogenous Time-Resolved Fluorescence (HTRF) binding assay.
# Homogenous Time-Resolved Fluorescence (HTRF) Binding Assay
# The interaction of PD-1 and PD-L1 can be assessed using soluble, purified preparations of the extracellular domains of the two proteins. The PD-1 and PD-L1 protein extracellular domains were expressed as fusion proteins with detection tags, for PD-1, the tag was the Fc portion of Immunoglobulin (PD-1-Ig) and for PD-L1 it was the 6 histidine motif (PD-L1-His). All binding studies were performed in an HTRF assay buffer consisting of dPBS supplemented with 0.1% […] bovine serum albumin and 0.05% (v/v) Tween-20. For the h/PD-L1-His binding assay, inhibitors were pre-incubated with PD-L1-His (10 nM final) for 15 m in 4 μl of assay buffer, followed by addition of PD-1-Ig (20 nM final) in 1 μl of assay buffer and further incubation for 15 m. HTRF detection was achieved using europium cryptate-labeled anti-Ig (1 nM final) and allophycocyanin (APC) labeled anti-His (20 nM final). Antibodies were diluted in HTRF detection buffer and 5 μl was dispensed on top of the binding reaction. The reaction mixture was allowed to equilibrate for 30 minutes and the resulting signal (665 nm/620 nm ratio) was obtained using an EnVision fluorometer. Additional binding assays were established between the human proteins PD-1-Ig/PD-L2-His (20 & 5 nM, respectively) and CD80-His/PD-L1-Ig (100 & 10 nM, respectively).
# Recombinant Proteins: Human PD-1 (25-167) with a C-terminal human Fc domain of immunoglobulin G (Ig) epitope tag [hPD-1 (25-167)-3S-IG] and human PD-L1 (18-239) with a C-terminal His epitope tag [hPD-L1(18-239)-TVMV-His] were expressed in HEK293T cells and purified sequentially by ProteinA affinity chromatography and size exclusion chromatography. Human PD-L2-His and CD80-His was obtained through commercial sources.
# Table 1 lists the IC50 values for representative examples of this disclosure measured in the PD-1/PD-L1 Homogenous Time-Resolved Fluorescence (HTRF) binding assay.
row,SMILES,IC50
1,CCCC[C@H]1C(=O)N(C)[C@@H](CCCC)C(=O)N[C@@H](CC(C)C)C(=O)N[C@H](C(=O)NCC(N)=O)CSCC(=O)N[C@@H](Cc2ccc(O)cc2)C(=O)N(C)[C@@H](C)C(=O)N[C@@H](CC(N)=O)C(=O)N2CCC[C@H]2C(=O)N[C@@H](CN2Cc3ccccc3B3O[C@@H]([C@H](O)[C@@H](C(O)CO)O3)[C@H](O)C2)C(=O)N[C@@H](CC(C)C)C(=O)N2C[C@H](O)C[C@H]2C(=O)N[C@@H](Cc2c[nH]c3ccccc23)C(=O)N[C@@H](CCNC[C@@H](O)[C@@H](O)[C@H](O)[C@H](O)C(O)CO)C(=O)N[C@@H](Cc2cn(CC(=O)O)c3ccccc23)C(=O)N1C (stereo partly drawn) [Example 1038] ({CH2CO}-Y[NMeA]NP[X12]L[Hyp]W[X13][Trp(1-CH2COOH)][NMeNle][NMeNle]LCG-NH2; thioether N-14),6.8 nM

# Same assay, conditions: PD-L1-His 10 nM, PD-1-Ig 20 nM; read-out: HTRF IC50
row,SMILES,IC50
1,CCCC[C@H]1C(=O)N(C)[C@@H](CCCC)C(=O)N[C@@H](CC(C)C)C(=O)N[C@H](C(=O)NCC(N)=O)CSCC(=O)N[C@@H](Cc2ccc(O)cc2)C(=O)N(C)[C@@H](C)C(=O)N[C@@H](CC(N)=O)C(=O)N2CCC[C@H]2C(=O)N[C@@H](CNCc2ccc(OC)c(B(O)O)c2)C(=O)N[C@@H](CC(C)C)C(=O)N2C[C@H](O)C[C@H]2C(=O)N[C@@H](Cc2c[nH]c3ccccc23)C(=O)N[C@@H](CCNCc2ccc(OC)c(B(O)O)c2)C(=O)N[C@@H](Cc2cn(CC(=O)O)c3ccccc23)C(=O)N1C [Example 1032] ({CH2CO}-Y[NMeA]NP[X10]L[Hyp]W[X11][Trp(1-CH2COOH)][NMeNle][NMeNle]LCG-NH2; thioether N-14),5.9 nM
2,CCCC[C@H]1C(=O)N(C)[C@@H](CCCC)C(=O)N[C@@H](CC(C)C)C(=O)N[C@H](C(=O)NCC(N)=O)CSCC(=O)N[C@@H](Cc2ccc(O)cc2)C(=O)N(C)[C@@H](C)C(=O)N[C@@H](CC(N)=O)C(=O)N2CCC[C@H]2C(=O)N[C@H]2CNCc3cc(F)c(c(F)c3)B(O)OC(=O)Cn3cc(c4ccccc43)C[C@H](NC(=O)[C@H](CCN)NC(=O)[C@H](Cc3c[nH]c4ccccc34)NC(=O)[C@@H]3C[C@@H](O)CN3C(=O)[C@H](CC(C)C)NC2=O)C(=O)N1C [Example 1007] ({CH2CO}-Y[NMeA]NP[X25]L[Hyp]W[Dab][Trp(1-CH2CO)][NMeNle][NMeNle]LCG-NH2; ester 5-10; thioether N-14),9.9 nM
3,CCCC[C@H]1C(=O)N(C)[C@@H](CCCC)C(=O)N[C@@H](CC(C)C)C(=O)N[C@H](C(=O)NCC(N)=O)CSCC(=O)N[C@@H](Cc2ccc(O)cc2)C(=O)N(C)[C@@H](C)C(=O)N[C@@H](CC(N)=O)C(=O)N2CCC[C@H]2C(=O)N[C@H]2CNCc3ccc(Cl)c(c3)B(O)OC(=O)Cn3cc(c4ccccc43)C[C@H](NC(=O)[C@H](CCN)NC(=O)[C@H](Cc3c[nH]c4ccccc34)NC(=O)[C@@H]3C[C@@H](O)CN3C(=O)[C@H](CC(C)C)NC2=O)C(=O)N1C [Example 1011] ({CH2CO}-Y[NMeA]NP[X5]L[Hyp]W[Dab][Trp(1-CH2CO)][NMeNle][NMeNle]LCG-NH2; ester 5-10; thioether N-14),6.4 nM
4,CCCC[C@H]1C(=O)N(C)[C@@H](CCCC)C(=O)N[C@@H](CC(C)C)C(=O)N[C@H](C(=O)NCC(N)=O)CSCC(=O)N[C@@H](Cc2ccc(O)cc2)C(=O)N(C)[C@@H](C)C(=O)N[C@@H](CC(N)=O)C(=O)N2CCC[C@H]2C(=O)N[C@H]2CNCc3cc(OC)ccc3B(O)OC(=O)Cn3cc(c4ccccc43)C[C@H](NC(=O)[C@H](CCN)NC(=O)[C@H](Cc3c[nH]c4ccccc34)NC(=O)[C@@H]3C[C@@H](O)CN3C(=O)[C@H](CC(C)C)NC2=O)C(=O)N1C [Example 1006] ({CH2CO}-Y[NMeA]NP[X29]L[Hyp]W[Dab][Trp(1-CH2CO)][NMeNle][NMeNle]LCG-NH2; ester 5-10; thioether N-14),9 nM
5,CCCC[C@H]1C(=O)N(C)[C@@H](CCCC)C(=O)N[C@@H](CC(C)C)C(=O)N[C@H](C(=O)NCC(N)=O)CSCC(=O)N[C@@H](Cc2ccc(O)cc2)C(=O)N(C)[C@@H](C)C(=O)N[C@@H](CC(N)=O)C(=O)N2CCC[C@H]2C(=O)N[C@@H](CNCc2ccc(B(O)O)cc2C(F)(F)F)C(=O)N[C@@H](CC(C)C)C(=O)N2C[C@H](O)C[C@H]2C(=O)N[C@@H](Cc2c[nH]c3ccccc23)C(=O)N[C@@H](CCN)C(=O)N[C@@H](Cc2cn(CC(=O)O)c3ccccc23)C(=O)N1C [Example 1025] ({CH2CO}-Y[NMeA]NP[X30]L[Hyp]W[Dab][Trp(1-CH2COOH)][NMeNle][NMeNle]LCG-NH2; thioether N-14),14 nM
6,CCCC[C@H]1C(=O)N(C)[C@@H](CCCC)C(=O)N[C@@H](CC(C)C)C(=O)N[C@H](C(=O)NCC(N)=O)CSCC(=O)N[C@@H](Cc2ccc(O)cc2)C(=O)N(C)[C@@H](C)C(=O)N[C@@H](CC(N)=O)C(=O)N2CCC[C@H]2C(=O)N[C@H]2CNCc3ccc(cc3)B3OB(O3)c3cccc(c3)CNCC[C@H](NC(=O)[C@H](Cc3c[nH]c4ccccc34)NC(=O)[C@@H]3C[C@@H](O)CN3C(=O)[C@H](CC(C)C)NC2=O)C(=O)N[C@@H](Cc2cn(CC(=O)O)c3ccccc23)C(=O)N1C [Example 1005],7.1 nM
7,CCCC[C@H]1C(=O)N(C)[C@@H](CCCC)C(=O)N[C@@H](CC(C)C)C(=O)N[C@H](C(=O)NCC(N)=O)CSCC(=O)N[C@H]2Cc3ccc(cc3)OB(O)c3ccc(c(C(F)(F)F)c3)CNCC[C@@H]3NC(=O)[C@H](Cc4c[nH]c5ccccc45)NC(=O)[C@@H]4C[C@@H](O)CN4C(=O)[C@H](CC(C)C)NC(=O)[C@H](CNCc4ccc(cc4C(F)(F)F)B(O)OC(=O)Cn4cc(c5ccccc54)C[C@H](NC3=O)C(=O)N1C)NC(=O)[C@@H]1CCCN1C(=O)[C@H](CC(N)=O)NC(=O)[C@H](C)N(C)C2=O [Example 1030],11 nM
8,CCCC[C@H]1C(=O)N(C)[C@@H](CCCC)C(=O)N[C@@H](CC(C)C)C(=O)N[C@H](C(=O)NCC(N)=O)CSCC(=O)N[C@H]2Cc3ccc(cc3)OB(O)c3ccc(cc3F)CNCC[C@@H]3NC(=O)[C@H](Cc4c[nH]c5ccccc45)NC(=O)[C@@H]4C[C@@H](O)CN4C(=O)[C@H](CC(C)C)NC(=O)[C@H](CNCc4ccc(c(F)c4)B(O)OC(=O)Cn4cc(c5ccccc54)C[C@H](NC3=O)C(=O)N1C)NC(=O)[C@@H]1CCCN1C(=O)[C@H](CC(N)=O)NC(=O)[C@H](C)N(C)C2=O [Example 1026],4 nM
9,CCCC[C@H]1C(=O)N(C)[C@@H](CCCC)C(=O)N[C@@H](CC(C)C)C(=O)N[C@H](C(=O)NCC(N)=O)CSCC(=O)N[C@H]2Cc3ccc(cc3)OB(O)c3ccc(C)cc3CNCC[C@@H]3NC(=O)[C@H](Cc4c[nH]c5ccccc45)NC(=O)[C@@H]4C[C@@H](O)CN4C(=O)[C@H](CC(C)C)NC(=O)[C@H](CNCc4cc(C)ccc4B(O)OC(=O)Cn4cc(c5ccccc54)C[C@H](NC3=O)C(=O)N1C)NC(=O)[C@@H]1CCCN1C(=O)[C@H](CC(N)=O)NC(=O)[C@H](C)N(C)C2=O [Example 1021],5.3 nM
10,CCCC[C@H]1C(=O)N(C)[C@@H](CCCC)C(=O)N[C@@H](CC(C)C)C(=O)N[C@H](C(=O)NCC(N)=O)CSCC(=O)N[C@@H](Cc2ccc(O)cc2)C(=O)N(C)[C@@H](C)C(=O)N[C@@H](CC(N)=O)C(=O)N2CCC[C@H]2C(=O)N[C@H]2CNCc3cc(Cl)ccc3B(O)OC(=O)Cn3cc(c4ccccc43)C[C@H](NC(=O)[C@H](CCN)NC(=O)[C@H](Cc3c[nH]c4ccccc34)NC(=O)[C@@H]3C[C@@H](O)CN3C(=O)[C@H](CC(C)C)NC2=O)C(=O)N1C [Example 1008] ({CH2CO}-Y[NMeA]NP[X4]L[Hyp]W[Dab][Trp(1-CH2CO)][NMeNle][NMeNle]LCG-NH2; ester 5-10; thioether N-14),6.7 nM
11,CCCC[C@H]1C(=O)N(C)[C@@H](CCCC)C(=O)N[C@@H](CC(C)C)C(=O)N[C@H](C(=O)NCC(N)=O)CSCC(=O)N[C@@H](Cc2ccc(O)cc2)C(=O)N(C)[C@@H](C)C(=O)N[C@@H](CC(N)=O)C(=O)N2CCC[C@H]2C(=O)N[C@H]2CNCc3cccc(c3F)B(O)OC(=O)Cn3cc(c4ccccc43)C[C@H](NC(=O)[C@H](CCN)NC(=O)[C@H](Cc3c[nH]c4ccccc34)NC(=O)[C@@H]3C[C@@H](O)CN3C(=O)[C@H](CC(C)C)NC2=O)C(=O)N1C [Example 1015] ({CH2CO}-Y[NMeA]NP[X19]L[Hyp]W[Dab][Trp(1-CH2CO)][NMeNle][NMeNle]LCG-NH2; ester 5-10; thioether N-14),6.7 nM
